Data on one molecule can be found in patent US11512053B2, “Arginine methyltransferase inhibitors and uses thereof” (priority 2013, dated 2022).

pIC50: −log10 of the molar value. Like-named read-outs stand apart in the source and are kept apart here.

The assay deals with T1, human CARM1 (PRMT4) (Flag- and His-tagged) (Homo sapiens, UniProt Q86X55).
T1 construct: Flag-CARM1-His; made in house; host or cells: HEK 293F cells (BacMam baculovirus)
T1 sequence (Q86X55 1-585 isoform Q86X55-1): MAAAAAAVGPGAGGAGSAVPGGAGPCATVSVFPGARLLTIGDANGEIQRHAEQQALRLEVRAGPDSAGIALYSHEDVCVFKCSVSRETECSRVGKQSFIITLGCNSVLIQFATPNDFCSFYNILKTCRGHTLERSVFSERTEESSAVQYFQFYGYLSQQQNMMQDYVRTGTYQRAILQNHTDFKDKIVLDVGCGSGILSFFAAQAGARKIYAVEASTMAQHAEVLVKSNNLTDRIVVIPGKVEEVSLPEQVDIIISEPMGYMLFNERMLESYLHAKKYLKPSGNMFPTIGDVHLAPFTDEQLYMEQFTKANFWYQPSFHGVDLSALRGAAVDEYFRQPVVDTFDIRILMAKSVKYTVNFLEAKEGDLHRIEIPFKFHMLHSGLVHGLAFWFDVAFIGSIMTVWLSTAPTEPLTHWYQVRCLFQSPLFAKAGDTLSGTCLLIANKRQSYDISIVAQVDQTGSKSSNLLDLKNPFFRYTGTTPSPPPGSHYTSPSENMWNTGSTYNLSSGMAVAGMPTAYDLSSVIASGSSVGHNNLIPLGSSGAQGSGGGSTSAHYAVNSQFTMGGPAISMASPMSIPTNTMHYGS
As to the kind of experiment: CARM1 Biochemical Assay (3H-SAM Flashplate, peptide substrate). From the text: General Materials. S-adenosylmethionine (SAM), S-adenosylhomocysteine (SAH), bicine, Tween20, dimethylsulfoxide (DMSO), bovine skin gelatin (BSG), sodium butyrate and Tris(2-carboxyethyl)phosphine hydrochloride solution (TCEP) were purchased from Sigma-Aldrich at the highest level of purity possible. ^3H-SAM was purchase from American Radiolabeled Chemicals with a specific activity of 80 Ci/mmol. 384-well streptavidin Flashplates were purchased from PerkinElmer.
Substrates. Peptide representative of human histone H3 residues 16-30 was synthesized with an N-terminal linker-affinity tag motif and a C-terminal amide cap by 21st Century Biochemicals. The peptide was purified by high-performance liquid chromatography (HPLC) to greater than 95% purity and confirmed by liquid chromatography mass spectrometry (LC-MS). The sequence was Biot-Ahx-[…]-amide and contained a monomethylated arginine at position 26 (SEQ ID NO.:14).
Molecular Biology: Human CARM1 (PRMT4) (NM_199141.1) transcript clone was amplified from an HEK 293 cDNA library, incorporating a flanking 5′ sequence encoding a FLAG tag ([…]) (SEQ ID NO.:6) fused directly to Ala 2 of CARM1 and 3′ sequence encoding a hexa His sequence ([…]) (SEQ ID NO.:15) fused directly to Ser 608. The gene sequence encoding isoform1 containing a deletion of amino acids 539-561 was amplified subsequently and subcloned into pFastBacMam (Viva Biotech).
Protein Expression. Recombinant baculovirus were generated according to Bac-to-Bac kit instructions (Life Technologies). […] Infections were carried out at 37° C. for 48 hours, harvested by centrifugation, and stored at −80° C. for purification.
Protein Purification. […] Column was washed with 500 mM NaCl in buffer A and Flag-CARM1-His was eluted with 200 ug/ml FLAG peptide in buffer A. Pooled fractions were dialyzed in 20 mM Tris, 150 mM NaCl, 5% glycerol and 1 mM DTT, pH 7.8. The purity of recovered protein was 94.
General Procedure for CARM1 Enzyme Assays on Peptide Substrates. The assays were all performed in a buffer consisting of 20 mM Bicine (pH=7.6), 1 mM TCEP, 0.005% BSG, and 0.002% Tween 20, prepared on the day of use. Compounds in 100% DMSO (1 ul) were spotted into a polypropylene 384-well V-bottom plates (Greiner) using a Platemate Plus outfitted with a 384-channel head (Thermo Scientific). DMSO (1 ul) was added to Columns 11, 12, 23, 24, rows A-H for the maximum signal control and 1 ul of SAH, a known product and inhibitor of CARM1, was added to columns 11, 12, 23, 24, rows I-P for the minimum signal control. A cocktail (40 ul) containing the CARM1 enzyme was added by Multidrop Combi (Thermo-Fisher). The compounds were allowed to incubate with CARM1 for 30 min at room temperature, then a cocktail (10 ul) containing ^3H-SAM and peptide was added to initiate the reaction (final volume=51 ul). The final concentrations of the components were as follows: CARM1 was 0.25 nM, ^3H-SAM was 30 nM, peptide was 250 nM, SAH in the minimum signal control wells was 1 mM, and the DMSO concentration was 2%. The assays were stopped by the addition of non-radiolabeled SAM (10 ul) to a final concentration of 300 uM, which dilutes the ^3H-SAM to a level where its incorporation into the peptide substrate is no longer detectable. 50 ul of the reaction in the 384-well polypropylene plate was then transferred to a 384-well Flashplate and the biotinylated peptides were allowed to bind to the streptavidin surface for at least 1 hour before being washed once with 0.1% Tween20 in a Biotek ELx405 plate washer. The plates were then read in a PerkinElmer TopCount plate reader to measure the quantity of ^3H-labeled peptide bound to the Flashplate surface, measured as disintegrations per minute (dpm) or alternatively, referred to as counts per minute (cpm).
Where dpm=disintegrations per minute, cmpd=signal in assay well, and min and max are the respective minimum and maximum signal controls. […]

Molecule `CN(CCN)Cc1c[nH]nc1CCc1ccccc1` [Compound 9] gave a pIC50 of 5.52 to 6.00. The pIC50 (single experiment or average of multiple experiments) was 5.52.

What is called pIC50 is the negative decadic logarithm of the IC50, by convention in mol/L.
